Source: patent US8946436B2, “Oxazolidinone compounds and their uses in preparation of antibiotics” (Sichuan Gooddoctor Pharmaceutical Group Co., Ltd., priority 2011, dated 2015)
Converted amounts (≈) assume the structure as drawn.

Experiments:
MSSA [1] = experiment: MIC against clinically isolated strains, MSSA; type: cell-based, methicillin sensitive Staphylococcus aureus; set-up: MICmode / MICrange: unit not given here; settings: MSSA (14 strains)
From the text: (§1) Standard strains, including Staphylococcus aureus ATCC29213, S. pneumoniae ATCC49619, E. faecalis ATCC29212, are all available from the American Type Culture Collection.
(§2) Clinically isolated strains: There are total 120 clinical strains of gram-positive bacterium including: 37 strains of Staphylococcus aureus (consisting of 14 strains of methicillin sensitive Staphylococcus aureus MSSA and 23 strains of methicillin resistant Staphylococcus aureus MRSA); 27 strains of Streptococcus pneumoniae (consisting of 13 strains of penicillin sensitive Streptococcus pneumoniae PSSP and 14 strains of penicillin insensitive or resistant Streptococcus pneumoniae PISP+PRSP); 15 strains of Streptococcus pyogenes; 17 strains of Streptococcus agalactiae; 24 stains of Enterococcus faecium (consisting of 12 strains of vancomycin sensitive Enterococcus faecium and 12 strains of vancomycin resistant Enterococcus faecium).
(§3) (2) Tested compounds: Compound 13f was prepared by the methods above, with potency of over 98%; Linezolid was purchased from Pfizer, with potency of 100%.
(§4) Staphylococcus and Enterococcus faecium were incubated in Mueller-Hinton agar medium (MHA medium) at 35° C. for 16-20 h; S. pneumoniae was incubated in Cation-Adjusted Mueller-Hinton Broth medium (CAMHB medium) supplemented with 2.5-5.5% (v/v) lysed horse blood (LHB) at 35° C. for 20-24 h; and Streptococcus were incubated in sheep blood-containing medium (prepared by addition of 5% defibrinated sheep blood into MHA media) at 35° C. for 20-24 h in 5% CO2 environment (CO2 incubator). Before test of the compound activity, each stock of the bacteria strains was activated and colonized in the following manner: the stock was transferred and cultured in a liquid culture medium, the culture liquid was smeared onto an agar plate with an inoculating loop to obtain bacterial colonies on the plate after incubation, and then a colony of the bacteria was chose to be suspended into the liquid culture medium for performing the test of compound activity. As a result, fresh bacteria cells were applied to the test. The standard strains were used as sensitive bacterium to control the quality of the experiments, and a plate or tube containing no antibacterial compounds is used as a blank control for the growth of test strains.
(§5) The minimal inhibitory concentration (MIC) of the test compounds on the strains of Streptococcus pneumoniae was determined by a standard broth macrodilution method, while the MIC of the test compounds on the other bacteria stains was determined by standard agar double dilution methods. […] The MIC of the test compound to each strain of the bacteria was determined.

MRSA [2] = experiment: MIC against clinically isolated strains, MRSA; type: cell-based, methicillin resistant Staphylococcus aureus; set-up: MICmode / MICrange: unit not given here; settings: MRSA (23 strains)
From the text: as §1, §2, §3, §4, §5

PSSP [3] = experiment: MIC against clinically isolated strains, PSSP; type: cell-based, penicillin sensitive Streptococcus pneumoniae; set-up: MICmode / MICrange: unit not given here
From the text: as §1, §2, §3, §4, §5

PNSP = experiment: MIC against clinically isolated strains, PNSP; type: cell-based, penicillin insensitive or resistant Streptococcus pneumoniae; set-up: MICmode / MICrange: unit not given here; settings: PNSP (14 grains)
From the text: as §1, §2, §3, §4, §5

Streptococcus pyogenes = experiment: MIC against clinically isolated strains, Streptococcus pyogenes; type: cell-based; set-up: MICmode / MICrange: unit not given here; settings: Streptococcus pyogenes (15 strains)
From the text: as §1, §2, §3, §4, §5

MSSA [4] = experiment: Minimum bactericidal concentration (MBC) test, MSSA; type: cell-based, methicillin sensitive Staphylococcus aureus; settings: for MIC: MSSA
Protocol: as §4
(§6) The minimal inhibitory concentration (MIC) of the test compounds on the strains of Streptococcus pneumoniae was determined by a standard broth macrodilution method, while the MIC of the test compounds on the other bacteria stains was determined by standard agar double dilution methods. The concentration of the test compounds was in the range of 32 mg/L-0.016 mg/L. The bacterial suspensions to be tested were inoculated by a multipoint inoculator, and the inoculation amount at each point is 10^4 CFU. The MIC of the test compound to each strain of the bacteria was determined.
(§7) The MBC was determined by a tube double dilution method. Solutions of the test compounds was prepared and serially diluted. Each of the solutions was mixed with a bacterium suspension (10^6 CFU/mL), and then was incubated at 35° C. overnight. 0.1 mL of the culture supernatant of each tubes was inoculated on a plate containing no antibiotics, and then incubated at 35° C. for 18 h.

MRSA [5] = experiment: Minimum bactericidal concentration (MBC) test, MRSA; type: cell-based, methicillin resistant Staphylococcus aureus
Protocol: as §4, §6
(§8) The MBC was determined by a tube double dilution method. Solutions of the test compounds was prepared and serially diluted. Each of the solutions was mixed with a bacterium suspension (10^6 CFU/mL), and then was incubated at 35° C. overnight. […]

PSSP [6] = experiment: Minimum bactericidal concentration (MBC) test, PSSP; type: cell-based, penicillin sensitive Streptococcus pneumoniae; settings: strain 09G343, PSSP
Protocol: as §4, §6, §8

PNSSP = experiment: Minimum bactericidal concentration (MBC) test, PNSSP; type: cell-based, Streptococcus pneumoniae; settings: strain 09J699, PNSSP
Protocol: as §4, §6, §8

VSE = experiment: Minimum bactericidal concentration (MBC) test, VSE; type: cell-based, vancomycin sensitive Enterococcus faecium
Protocol: as §4, §6, §7

VRE = experiment: Minimum bactericidal concentration (MBC) test, VRE; type: cell-based, vancomycin resistant Enterococcus faecium
Protocol: as §4, §6, §7

gram-positive bacteria [7] = experiment: MBC test, 10 strains of clinically isolated gram-positive bacteria; type: cell-based
Protocol: In order to investigate whether the antibacterial activity of Compound 13f is bacteriostatic or bactericidal to gram-positive bacteria, we tested its MBC on 10 strains of gram-positive bacteria (established by clinical isolation), results as shown in Table 4.
as §7

gram-positive bacteria [8] = experiment: MIC against 120 strains of clinically isolated gram-positive bacteria; type: cell-based; settings: 120 clinically isolated gram-positive strains
From the text: In order to further study the antibacterial spectrum of Compound 13f, we tested in vitro inhibitory activity of compound 13f on 120 strains of gram-positive bacteria established by clinical isolation, and the MIC values were shown in Table 3.
as §2, §5

[9] = Streptococcus pneumoniae, PSSP (13 strains)
[10] = Staphylococcus aureus, strain 09U035, MSSA
[11] = Enterococcus faecium, strain 09D263, VSE
[12] = Enterococcus, strain 09ZB145, VRE

CC(=O)NC[C@H]1CN(c2ccc(-n3cc(-c4ccccn4)cn3)c(F)c2)C(=O)O1 [Compound 13f, (S)-N-((3-(3-fluoro-4-(4-(pyridin-2-yl)-1H-pyrazol-1-yl)phenyl)-2-oxooxazolidin-5-yl)methyl)acetamide]
MICmode (MSSA [1]): 1
MICrange (MSSA [1]): 0.5-1
MIC50 (MSSA [1]; Staphylococcus aureus): 1 ng/mL (≈ 2.53 nM)
MIC90 (MSSA [1]; Staphylococcus aureus): 1 ng/mL (≈ 2.53 nM)
MICmode (MRSA [2]): 1
MICrange (MRSA [2]): 0.5-1
MIC50 (MRSA [2]; Staphylococcus aureus): 1 ng/mL (≈ 2.53 nM)
MIC90 (MRSA [2]; Staphylococcus aureus): 1 ng/mL (≈ 2.53 nM)
MICrange (PSSP [3]; PSSP (13 grains)): 0.5-1
MICmode (PSSP [3]; PSSP (13 strains)): 1
MIC50 (PSSP [3]; [9]): 1 ng/mL (≈ 2.53 nM)
MIC90 (PSSP [3]; [9]): 1 ng/mL (≈ 2.53 nM)
MICmode (PNSP): 0.5
MICrange (PNSP): 0.5-1
MIC50 (PNSP; Streptococcus pneumoniae): 0.5 ng/mL (≈ 1.26 nM)
MIC90 (PNSP; Streptococcus pneumoniae): 1 ng/mL (≈ 2.53 nM)
MIC50 (Streptococcus pyogenes): 0.25 ng/mL (≈ 0.632 nM)
MIC90 (Streptococcus pyogenes): 0.5 ng/mL (≈ 1.26 nM)
MICmode (Streptococcus pyogenes): 0.25
MICrange (Streptococcus pyogenes): 0.25-0.5
MIC (MSSA [4]; Staphylococcus aureus, strain 09O077, MSSA): 1 ng/mL (≈ 2.53 nM)
MIC (MSSA [4]; [10]): 2 ng/mL (≈ 5.06 nM)
MBC (MSSA [4]; [10]): 2 ng/mL (≈ 5.06 nM)
MBC value (MSSA [4]; strain 09O077, MSSA): 2 µg/L (≈ 5.06 nM)
MBC/MIC (MSSA [4]; strain 09O077, MSSA): 2
MBC/MIC (MSSA [4]; strain 09U035, MSSA): 1
MBC/MIC (MRSA [5]; strain 09L075, MRSA): 2
MIC value (MRSA [5]; strain 09L075, MRSA): 2 µg/L (≈ 5.06 nM)
MBC/MIC (MRSA [5]; strain 09N120, MRSA): 1
MBC (PSSP [6]; Streptococcus pneumoniae): 1 ng/mL (≈ 2.53 nM)
MIC (PSSP [6]; Streptococcus pneumoniae): 0.5 ng/mL (≈ 1.26 nM)
MBC/MIC (PSSP [6]): 2
MBC (PNSSP; Streptococcus pneumoniae): 2 ng/mL (≈ 5.06 nM)
MIC (PNSSP; Streptococcus pneumoniae): 1 ng/mL (≈ 2.53 nM)
MBC/MIC (PNSSP): 2
MBC (VSE; [11]): 8 ng/mL (≈ 20.2 nM)
MIC (VSE; [11]): 4 ng/mL (≈ 10.1 nM)
MBC/MIC (VSE; strain 09D263, VSE): 2
MBC value (VSE; strain 09H202, VSE): 8 µg/L (≈ 20.2 nM)
MBC/MIC (VSE; strain 09H202, VSE): 2
MIC value (VSE; strain 09H202, VSE): 4 µg/L (≈ 10.1 nM)
MBC (VRE; [12]): 8 ng/mL (≈ 20.2 nM)
MIC (VRE; [12]): 4 ng/mL (≈ 10.1 nM)
MBC value (VRE; strain 09ZB137, VRE): 8 µg/L (≈ 20.2 nM)
MBC/MIC (VRE; strain 09ZB137, VRE): 2
MIC value (VRE; strain 09ZB137, VRE): 4 µg/L (≈ 10.1 nM)
MBC/MIC (VRE; strain 09ZB145, VRE): 2
MBC/MIC ratio (gram-positive bacteria [7]; 3 of 4 tested strains of E. faecalis): 4
ratio of MBC/MIC (gram-positive bacteria [7]; Staphylococcus sp. and Streptococcus pneumoniae): 1-2
ratio of MBC/MIC (gram-positive bacteria [7]; all the 10 tested strains): ≤ 4
bacteriostatic or bactericidal (gram-positive bacteria [7]; all the 10 tested strains, MBC/MIC ≦4): bactericidal effect
antibacterial activity on test strains compared with Linezolid (gram-positive bacteria [8]): almost the same with that of Linezolid
